The values that follow come from ChEMBL document CHEMBL5252628, “Novel xanthone antibacterials: Semi-synthesis, biological evaluation, and the action mechanisms” (Bioorg Med Chem, 2023).

Data set [1] relates to Staphylococcus aureus. Kind of data set: Antibacterial activity against Staphylococcus aureus ATCC 43300 assessed as inhibition of bacterial growth incubated for 18 to 24 hrs by broth microdilution assay. It is filed as functional. To be noted: time 18-24 hrs.
The subject of another data set is L02. Kind of data set: Cytotoxicity against human L02 cells assessed as reduction in cell viability at 25 ug/ml incubated for 72 hrs by CCK-8 assay. It counts as toxicity, cell-based. The note with it: l02, 72 h, dose 25 µg/ml.
The nature of data set [2]: Hemolytic activity in rabbit RBC assessed as hemolysis incubated for 1 hr by microtiter plate method. It counts as toxicity, cell-based, Oryctolagus cuniculus, Erythrocyte. To be noted: red blood cells.
For data set [3], the system named is Staphylococcus aureus. Kind of data set: Antibacterial activity against methicillin-resistant Staphylococcus aureus 2 assessed as blurred space in cytoplasm and cell wall at 5 x MIC incubated for 2 hrs by transmission electron microscopy analysis. It counts as functional, organism-based.
For data set [4], the system named is Staphylococcus aureus. Kind of data set: Antibacterial activity against Staphylococcus aureus ATCC 29213 assessed as cell wall loosening at 5 x MIC incubated for 2 hrs by transmission electron microscopy analysis. It is filed as functional, organism-based.
For data set [5], the system named is Staphylococcus aureus. Kind of data set: Antibacterial activity against Staphylococcus aureus ATCC 29213 assessed as separation of plasma wall at 5 x MIC incubated for 2 hrs by transmission electron microscopy analysis. It is filed as functional, organism-based.
For data set [6], the system named is Staphylococcus aureus. Kind of data set: Antibacterial activity against Staphylococcus aureus ATCC 29213 assessed as appearance of circular vesicles at 5 x MIC incubated for 2 hrs by transmission electron microscopy analysis. It is filed as functional, organism-based.
For data set [7], the system named is Staphylococcus aureus. Kind of data set: Antibacterial activity against Staphylococcus aureus SH-27 assessed as inhibition of bacterial growth incubated for 18 to 24 hrs by broth microdilution assay. It is filed as functional. To be noted: time 18-24 hrs. In general terms: In broth dilution the organism is exposed to a series of concentrations in liquid medium.

In data set [8] the test system is Staphylococcus aureus. Kind of data set: Antibacterial activity against methicillin-resistant Staphylococcus aureus 2 assessed as inhibition of bacterial growth incubated for 18 to 24 hrs by broth microdilution assay. It is filed as functional. The note with it: time 18-24 hrs.
The test system of data set [9] is Staphylococcus aureus. Kind of data set: Bactericidal activity against methicillin-resistant Staphylococcus aureus 2 assessed as reduction in colony forming unit at 1 to 8 times MIC incubated for 18 to 24 hrs by time kill assay. The note with it: time 18-24 hrs. It counts as functional, organism-based.
For data set [10], the system named is Cell membrane. Kind of data set: Induction of cell membrane permeability in methicillin-resistant Staphylococcus aureus 2 at 5 x MIC incubated for 2 hrs by TO-PRO-3 reagent flow cytometry assay. It counts as subcellular.
The test system of data set [11] is Cell membrane. Kind of data set: Induction of membrane depolarization in Staphylococcus aureus ATCC 29213 at 5 x MIC incubated for 2 hrs by DiOC23 dye based based flow cytometry. It is filed as subcellular.
A further data set relates to Escherichia coli. Kind of data set: Antibacterial activity against Escherichia coli ATCC 25922 assessed as inhibition of bacterial growth incubated for 18 to 24 hrs by broth microdilution assay. It counts as functional. The note with it: time 18-24 hrs.
The test system of data set [12] is Staphylococcus aureus. Kind of data set: Antibacterial activity against methicillin-resistant Staphylococcus aureus 2 assessed as cell wall loosening at 5 x MIC incubated for 2 hrs by transmission electron microscopy analysis. It is filed as functional, organism-based.
The test system of data set [13] is Staphylococcus aureus. Kind of data set: Antibacterial activity against Staphylococcus aureus ATCC 29213 assessed as inhibition of bacterial growth incubated for 18 to 24 hrs by broth microdilution assay. It is filed as functional. To be noted: time 18-24 hrs.
Another data set relates to A549. Kind of data set: Cytotoxicity against human A549 cells assessed as reduction in cell viability at 25 ug/ml incubated for 72 hrs by CCK-8 assay. To be noted: a549, 72 h, dose 25 µg/ml. It is filed as toxicity, cell-based. In general terms: Tetrazolium assays rely on reduction of a dye to a coloured formazan, in cell work by metabolically active cells.
For data set [14], the system named is Staphylococcus aureus. Kind of data set: Antibacterial activity against Staphylococcus aureus ATCC 33591 assessed as inhibition of bacterial growth incubated for 18 to 24 hrs by broth microdilution assay. To be noted: time 18-24 hrs. It counts as functional.
Data set [15] relates to Staphylococcus aureus. Kind of data set: Bactericidal activity against Staphylococcus aureus ATCC 29213 assessed as reduction in colony forming unit at 1 to 8 times MIC incubated for 18 to 24 hrs by time kill assay. It is filed as functional, organism-based. To be noted: time 18-24 hrs.
Data set [16] deals with Staphylococcus aureus. Kind of data set: Inhibition of biofilm formation in Staphylococcus aureus ATCC 29213 at 4 to 16 microg/ml incubated for 18 to 24 hrs by crystal violet staining based assay. It counts as functional, organism-based. The note with it: dose 4-16 µg/ml, time 18-24 hrs.
Data set [17] concerns Staphylococcus aureus. Kind of data set: Antibacterial activity against Staphylococcus aureus ATCC 29213 assessed as blurred space in cytoplasm and cell wall at 5 x MIC incubated for 2 hrs by transmission electron microscopy analysis. It counts as functional, organism-based.
For data set [18], the system named is Staphylococcus aureus. Kind of data set: Antibacterial activity against methicillin-resistant Staphylococcus aureus 2 assessed as appearance of circular vesicles at 5 x MIC incubated for 2 hrs by transmission electron microscopy analysis. It counts as functional, organism-based.
For data set [19], the system named is Cell membrane. Kind of data set: Induction of membrane depolarization in methicillin-resistant Staphylococcus aureus 2 at 5 x MIC incubated for 2 hrs by DiOC23 dye based based flow cytometry. It is filed as subcellular. A general note: A flow cytometer gives signals particle by particle.
Data set [20] deals with Staphylococcus aureus. Kind of data set: Antibacterial activity against methicillin-resistant Staphylococcus aureus 2 assessed as separation of plasma wall at 5 x MIC incubated for 2 hrs by transmission electron microscopy analysis. It is filed as functional, organism-based.
Data set [21] has as its system Cell membrane. Kind of data set: Induction of cell membrane permeability in Staphylococcus aureus ATCC 29213 at 5 x MIC incubated for 2 hrs by TO-PRO-3 reagent flow cytometry assay. It counts as subcellular.
Data set [22] has as its system Staphylococcus aureus. Kind of data set: Inhibition of biofilm formation in methicillin-resistant Staphylococcus aureus 2 at 4 to 16 microg/ml incubated for 18 to 24 hrs by crystal violet staining based assay. It counts as functional, organism-based. The note with it: dose 4-16 µg/ml, time 18-24 hrs.
The subject of the next data set is Salmonella enteritidis. Kind of data set: Antibacterial activity against Salmonella enteritidis SM012 assessed as inhibition of bacterial growth incubated for 18 to 24 hrs by broth microdilution assay. It counts as functional, Salmonella enterica subsp. enterica serovar Enteritidis. The note with it: Salmonella enterica, time 18-24 hrs.
Data set [23] concerns Staphylococcus aureus. Kind of data set: Antibacterial activity Staphylococcus aureus ATCC 29213 infected BALB/c mouse assessed as reduction in bacterial burden at 15 mg/kg,iv measured on day 1 and 3 after infection. It is filed as functional, organism-based.
Data set [24] is described as follows: Cytotoxicity against human A549 cells assessed as reduction in cell viability incubated for 72 hrs by CCK-8 assay. It counts as toxicity, cell-based.
Data set [25] can be described thus: Cytotoxicity against human L02 cells assessed as reduction in cell viability incubated for 72 hrs by CCK-8 assay. It is filed as toxicity, cell-based.

Values after ≈ are worked out from the molar mass of the structure shown. Active and inactive are the calls of the source. No cut-off for these calls is given here.

What is called MIC is the lowest concentration found to suppress growth. One may read the HC50 as the concentration that lyses half of the red blood cells. For the compound `COc1c(O)cc2oc3cc(O)c(CC=C(C)C)c(O)c3c(=O)c2c1CC=C(C)C` [MANGOSTIN], the MIC is 1 µg/mL (≈ 2.44 µM) in the data set on Staphylococcus aureus [1]; 2 µg/mL (≈ 4.87 µM) with Staphylococcus aureus [7]; 2 µg/mL (≈ 4.87 µM) in the data set on Staphylococcus aureus [8]; > 256 µg/mL in the data set on Escherichia coli; 2 µg/mL (≈ 4.87 µM) in the data set with Staphylococcus aureus [13]; 1 µg/mL (≈ 2.44 µM) with Staphylococcus aureus [14]. Further, in the data set on Salmonella enteritidis, the MIC is > 256 µg/mL. In addition, the Activity result in the data set on L02 was “Non-Toxic”; with Cell membrane [10] it was 100%; in the data set with A549 it was “Non-Toxic”; in the data set on Cell membrane [21], 100%. Besides, in [2], the HC50 at 1 h was 26.2 µg/mL. For the same compound, the outcome with Staphylococcus aureus [3], with Staphylococcus aureus [4], with Staphylococcus aureus [5], in the data set with Staphylococcus aureus [6], in the data set with Staphylococcus aureus [9] and in the data set on Cell membrane [11] was Active. In addition, the outcome in the data set with Staphylococcus aureus [12], in the data set on Staphylococcus aureus [15], with Staphylococcus aureus [17], with Staphylococcus aureus [18], in the data set on Cell membrane [19] and in the data set with Staphylococcus aureus [20] was Active. In addition, the inhibition result with Staphylococcus aureus [16] and with Staphylococcus aureus [22] was “Dose-Dependent Effect” throughout.
For the compound `CCN1CCN(c2cc3c(cc2F)c(=O)c(C(=O)O)cn3C2CC2)CC1` [ENROFLOXACIN], the MIC in the data set with Staphylococcus aureus [7] amounted to 128 µg/mL (≈ 356 µM); with Staphylococcus aureus [8] it was 32 µg/mL (≈ 89 µM); with Escherichia coli, 0.0156 µg/mL (≈ 0.0434 µM); with Staphylococcus aureus [13], 0.06 µg/mL (≈ 0.167 µM). In addition, the outcome in the data set with Staphylococcus aureus [23] was Active.
In general, IC50 refers to the point on the concentration scale where inhibition reaches its midpoint. With `COc1c(OC(C)=O)cc2oc3cc(O)c(CC=C(C)C)c(O)c3c(=O)c2c1CC=C(C)C`, the MIC is 2 µg/mL (≈ 4.42 µM) with Staphylococcus aureus [1]; 2 µg/mL (≈ 4.42 µM) in the data set with Staphylococcus aureus [7]; 2 µg/mL (≈ 4.42 µM) with Staphylococcus aureus [8]; > 256 µg/mL in the data set with Escherichia coli; 4 µg/mL (≈ 8.84 µM) in the data set on Staphylococcus aureus [13]; 2 µg/mL (≈ 4.42 µM) in the data set with Staphylococcus aureus [14]. Also, the MIC in the data set with Salmonella enteritidis is > 256 µg/mL. Moreover, the IC50 at 72 h turned out to be 17.5 µg/mL (≈ 38.7 µM) in data set [24] and 13.2 µg/mL (≈ 29.2 µM) in data set [25]. The HC50 at 1 h in [2] was > 500 µg/mL.
